Laboratory results taken from patent US6914045B2, “Glycopeptide antibiotics” (Wyeth Holdings Corporation, priority 2001, dated 2005).
Values after ≈ are worked out from the molar mass of the structure shown.

Experiments:
Staphylococcus aureus = test: zone of inhibition, agar well assay plate; assay type: cell-based; details: 25 μl of extract per 5 mm well, incubated overnight at 37° C.
Protocol: Protocol for Assay Plate Staphylococcus aureus
Inoculate 10 mL of Tryptic Soy Broth with a loopful of slant culture, Staphylococcus aureus, and place in a stationary rack at 37° C. After 16-18 hour incubation, the Optical Density (OD) of the culture is read@A600 nm, using a 1:10 dilution. OD should be between 0.1-0.3, and if not adjust with Tryptic Soy Broth. A 40 mL sample of Nutrient Agar, pH 6.8 is inoculated with 90 ul of S. aureus culture and poured into a sterile petri dish. When the agar has solidified, wells (5 mm) are plated using an automated welling device. Wells are inoculated with 25 μl of extract and incubated overnight at 37° C. Zones of inhibition are measured and recorded the following morning.

[1] = system: Streptococcus pneumoniae (GC 1894); test: acute lethal infection in mice; assay type: in vivo; details: female CD-1 mice, intraperitoneal challenge, intravenous 30 min. after infection, 7 day survival
How it was run: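 Female CD-1 mice (20±2 g) got an intraperitoneal bacterial challenge lethal to untreated controls within 24–48 hr. Compound was dosed intravenously 30 min after infection, five mice per dose. ED50 was calculated from 7-day survival pooled across 3 tests.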

Enterococcus sp. = test: in vitro antibacterial evaluation, MIC by broth dilution; assay type: cell-based; details: broth dilution, 18 hours at 35° C.
How it was run: (§1)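 MIC = lowest antibiotic concentration preventing visible growth; inoculum 5×10^5 CFU/mL; drug range 64-0.06 μg/mL; Muller-Hinton II […]; NCCLS M7-A2 guidance.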

Escherichia coli = test: as above; assay type: cell-based; details: 18 hours at 35° C.
How it was run: as §1

Streptococcus sp. = test: as above; assay type: cell-based; details: broth dilution, 18 hours at 35° C.
How it was run: as §1

Staphylococcus sp. = test: as above; assay type: cell-based; details: broth dilution, 18 hours at 35° C.
How it was run: as §1

## CCCC(=O)OC1C(O)C(CO)OC(OC2C(CO)OC(Oc3ccc(CC4NC(=O)C(C(C)c5ccccc5)NC(=O)CNC(=O)C(CO)NC(=O)C(C(O)C5CNC(=N)N5C5OC(CO)C(O)C(O)C5O)NC(=O)C(C(O)C5CNC(=N)N5)NC4=O)cc3)C(O)C2O)C1O (stereo not drawn) [Example 272b, Cyclo[glycyl-β-methylphenylalanyl-O-[4-O-(3-O-butanoyl-hexopyranosyl)-hexopyranosyl]tyrosyl-3-(2-iminoimidazolidin-4-yl)seryl-3-(3-hexopyranosyl-2-iminoimidazolidin-4-yl)serylseryl]]
Staphylococcus aureus
  Zone of Inhibition vs. S. aureus: 8 mm

## CC(c1ccccc1)C1NC(=O)CNC(=O)C(CO)NC(=O)C(C(O)C2CNC(=N)N2C2OC(CO)C(O)C(O)C2O)NC(=O)C(C(O)C2CNC(=N)N2)NC(=O)C(Cc2ccc(OC3OC(CO)C(OC4OC5COC(C6CCCCC6)OC5C(O)C4O)C(O)C3O)cc2)NC1=O (stereo not drawn) [Example 112, Cyclo[glycyl-β-methylphenylalanyl-O-[4-O-[4,6-O-(cyclohexylmethylene)hexopyranosyl]-hexopyranosyl]tyrosyl-3-(2-iminoimidazolidin-4-yl)seryl-3-(3-hexopyranosyl-2-iminoimidazolidin-4-yl)serylseryl]]
[1]
  median effective dose (ED50), Streptococcus pneumoniae (GC 1894): 0.02 mg/kg
Enterococcus sp.; Enterococcus avium (GC 4558)
  MIC Enterococcus avium (GC 4558): 2 µg/mL (≈ 1.44 µM)
Enterococcus sp.; Enterococcus faecalis (ATCC 29212)
  MIC Enterococcus faecalis (ATCC 29212): 2 µg/mL (≈ 1.44 µM)
Enterococcus sp.; Enterococcus faecalis (GC 2242)
  MIC Enterococcus faecalis (GC 2242): 1 to 2 µg/mL
Enterococcus sp.; Enterococcus faecalis (GC 2691)
  MIC Enterococcus faecalis (GC 2691): 2 µg/mL (≈ 1.44 µM)
Enterococcus sp.; Enterococcus faecalis (GC 3059)
  MIC Enterococcus faecalis (GC 3059): 2 µg/mL (≈ 1.44 µM)
Enterococcus sp.; Enterococcus faecalis (GC 4552)
  MIC Enterococcus faecalis (GC 4552): 2 µg/mL (≈ 1.44 µM)
Enterococcus sp.; Enterococcus faecalis (GC 4553)
  MIC Enterococcus faecalis (GC 4553): 2 to 4 µg/mL
Enterococcus sp.; Enterococcus faecalis (GC 4554)
  MIC Enterococcus faecalis (GC 4554): 2 µg/mL (≈ 1.44 µM)
Enterococcus sp.; Enterococcus faecalis (GC 6189)
  MIC Enterococcus faecalis (GC 6189): 2 µg/mL (≈ 1.44 µM)
Enterococcus sp.; Enterococcus faecium (GC 2243)
  MIC Enterococcus faecium (GC 2243): 1 to 2 µg/mL
Enterococcus sp.; Enterococcus faecium (GC 4556)
  MIC Enterococcus faecium (GC 4556): 2 µg/mL (≈ 1.44 µM)
Enterococcus sp.; Enterococcus faecium (GC 4557)
  MIC Enterococcus faecium (GC 4557): 0.5 to 2 µg/mL
Enterococcus sp.; strain ATCC 29212
  MIC Enterococcus faecalis (ATCC 29212): 2 µg/mL (≈ 1.44 µM)
Enterococcus sp.; strain GC 2242
  MIC Enterococcus faecalis (GC 2242): 1 to 2 µg/mL
Enterococcus sp.; strain GC 2243
  MIC Enterococcus faecium (GC 2243): 1 to 2 µg/mL
Enterococcus sp.; strain GC 2691
  MIC Enterococcus faecalis (GC 2691): 2 µg/mL (≈ 1.44 µM)
Enterococcus sp.; strain GC 3059
  MIC Enterococcus faecalis (GC 3059): 2 µg/mL (≈ 1.44 µM)
Enterococcus sp.; strain GC 4552
  MIC Enterococcus faecalis (GC 4552): 2 µg/mL (≈ 1.44 µM)
Enterococcus sp.; strain GC 4553
  MIC Enterococcus faecalis (GC 4553): 2 to 4 µg/mL
Enterococcus sp.; strain GC 4554
  MIC Enterococcus faecalis (GC 4554): 2 µg/mL (≈ 1.44 µM)
Enterococcus sp.; strain GC 4556
  MIC Enterococcus faecium (GC 4556): 2 µg/mL (≈ 1.44 µM)
Enterococcus sp.; strain GC 4557
  MIC Enterococcus faecium (GC 4557): 0.5 to 2 µg/mL
Enterococcus sp.; strain GC 4558
  MIC Enterococcus avium (GC 4558): 2 µg/mL (≈ 1.44 µM)
Enterococcus sp.; strain GC 6189
  MIC Enterococcus faecalis (GC 6189): 2 µg/mL (≈ 1.44 µM)
Escherichia coli; strain ATCC 25922
  MIC Escherichia coli (ATCC 25922): 32 µg/mL (≈ 23 µM)
Escherichia coli; strain GC 4559
  MIC Escherichia coli (GC 4559): >16 µg/mL
Escherichia coli; strain GC 4560
  MIC Escherichia coli (GC 4560): 1 µg/mL (≈ 0.72 µM)
Streptococcus sp.; Streptococcus agalactiae (GC 4564)
  MIC Streptococcus agalactiae (GC 4564): <0.12 µg/mL
Streptococcus sp.; Streptococcus pneumoniae (GC 4565)
  MIC Streptococcus pneumoniae (GC 4565): <0.12 µg/mL
Streptococcus sp.; Streptococcus pyogenes (GC 4563)
  MIC Streptococcus pyogenes (GC 4563): <0.12 µg/mL
Streptococcus sp.; Streptococcus pyogenes (ID-3187)
  MIC Streptococcus pyogenes (ID-3187): 0.5 µg/mL (≈ 0.36 µM)
Streptococcus sp.; strain GC 4563
  MIC Streptococcus pyogenes (GC 4563): <0.12 µg/mL
Streptococcus sp.; strain GC 4564
  MIC Streptococcus agalactiae (GC 4564): <0.12 µg/mL
Streptococcus sp.; strain GC 4565
  MIC Streptococcus pneumoniae (GC 4565): <0.12 µg/mL
Streptococcus sp.; strain ID-3187
  MIC Streptococcus pyogenes (ID-3187): 0.5 µg/mL (≈ 0.36 µM)
Staphylococcus sp.
  MIC Coagulase Negative Staphylococcus (GC 4547): 0.5 to 1 µg/mL
  MIC Coagulase Negative Staphylococcus (GC 4548): 0.5 to 1 µg/mL
  MIC Coagulase Negative Staphylococcus (GC 4549): 0.5 to 1 µg/mL
  MIC Coagulase Negative Staphylococcus (GC 4551): 0.5 to 1 µg/mL
  MIC Coagulase Negative Staphylococcus (GC 6257): 1 µg/mL (≈ 0.72 µM)
  MIC Coagulase Negative Staphylococcus (ID-3941): 0.5 µg/mL (≈ 0.36 µM)
  MIC Staphylococcus aureus (ATCC 29213): 1 µg/mL (≈ 0.72 µM)
  MIC Staphylococcus aureus (GC 1131): 0.5 to 1 µg/mL
  MIC Staphylococcus aureus (GC 4541): 1 µg/mL (≈ 0.72 µM)
  MIC Staphylococcus aureus (GC 4542): 1 µg/mL (≈ 0.72 µM)
  MIC Staphylococcus aureus (GC 4544): 0.5 to 2 µg/mL
  MIC Staphylococcus aureus (GC 4545): 1 to 2 µg/mL
  MIC Staphylococcus aureus-SMITH (GC 4543): 0.5 to 1 µg/mL
  MIC Staphylococcus haemolyticus (GC 4546): 1 µg/mL (≈ 0.72 µM)
Staphylococcus sp.; inoculum 5×10^5 CFU/mL, strain GC 1131
  MIC Staphylococcus aureus (GC 1131): 0.5 to 1 µg/mL
Staphylococcus sp.; strain ATCC 29213
  MIC Staphylococcus aureus (ATCC 29213): 1 µg/mL (≈ 0.72 µM)
Staphylococcus sp.; strain GC 4541
  MIC Staphylococcus aureus (GC 4541): 1 µg/mL (≈ 0.72 µM)
Staphylococcus sp.; strain GC 4542
  MIC Staphylococcus aureus (GC 4542): 1 µg/mL (≈ 0.72 µM)
Staphylococcus sp.; strain GC 4544
  MIC Staphylococcus aureus (GC 4544): 0.5 to 2 µg/mL
Staphylococcus sp.; strain GC 4545
  MIC Staphylococcus aureus (GC 4545): 1 to 2 µg/mL
Staphylococcus sp.; strain GC 4546
  MIC Staphylococcus haemolyticus (GC 4546): 1 µg/mL (≈ 0.72 µM)
Staphylococcus sp.; strain GC 4547
  MIC Coagulase Negative Staphylococcus (GC 4547): 0.5 to 1 µg/mL
Staphylococcus sp.; strain GC 4548
  MIC Coagulase Negative Staphylococcus (GC 4548): 0.5 to 1 µg/mL
Staphylococcus sp.; strain GC 4549
  MIC Coagulase Negative Staphylococcus (GC 4549): 0.5 to 1 µg/mL
Staphylococcus sp.; strain GC 4551
  MIC Coagulase Negative Staphylococcus (GC 4551): 0.5 to 1 µg/mL
Staphylococcus sp.; strain GC 6257
  MIC Coagulase Negative Staphylococcus (GC 6257): 1 µg/mL (≈ 0.72 µM)
Staphylococcus sp.; strain ID-3941
  MIC Coagulase Negative Staphylococcus (ID-3941): 0.5 µg/mL (≈ 0.36 µM)
Staphylococcus sp.; strain SMITH GC 4543
  MIC Staphylococcus aureus-SMITH (GC 4543): 0.5 to 1 µg/mL

## CCCCCCC(=O)OC1C(OC2C(CO)OC(Oc3ccc(CC4NC(=O)C(C(C)c5ccccc5)NC(=O)CNC(=O)C(CO)NC(=O)C(C(O)C5CNC(=N)N5C5OC(CO)C(O)C(O)C5O)NC(=O)C(C(O)C5CNC(=N)N5)NC4=O)cc3)C(O)C2O)OC(CO)C(O)C1O (stereo not drawn) [Example 274a, Cyclo[glycyl-β-methylphenylalanyl-O-[4-O-(2-O-heptanoyl-hexopyranosyl)-hexopyranosyl]tyrosyl-3-(2-iminoimidazolidin-4-yl)seryl-3-(3-hexopyranosyl-2-iminoimidazolidin-4-yl)serylseryl]]
Staphylococcus aureus
  Zone of Inhibition vs. S. aureus: 9 mm
